In US20230271950A1, “ANTIBACTERIAL PICOLINAMIDE COMPOUNDS” (University of Notre Dame Du Lac, priority 2020, published 2023):
≈ marks a conversion by molar mass, not a printed value. Where two headings read alike, the source gives them in different places.

Assays:
[1] = test system: E. faecium NCTC7171; experiment: MIC against E. faecium; assay type: cell-based, Enterococcus faecium; settings: Enterococcus faecium, NCTC7171; E. faecium NCTC 7171; Table 10, unit inferred; read-out: Activity (MIC) against E. faecium
[2] = test system: S. aureus ATCC29213; experiment: MIC against MSSA; assay type: cell-based, Staphylococcus aureus; settings: Staphylococcus aureus; MSSA ATCC 29213; Table 10, unit inferred; read-out: Activity (MIC) against S. aureus
[3] = test system: C. difficile; experiment: MIC by broth microdilution against C. difficile strains; assay type: cell-based, Clostridioides difficile; settings: for MIC: Clostridioides difficile
[4] = Pharmacokinetics study in mice (plasma and feces levels); assay type: in vivo; settings: for Conc. feces/MIC: dose 20 mg · kg^−1; for concentration at 8 h: female, CD-1, mouse, single oral gavage, dose 20 mg · kg^−1, feces collected after 8 h, read-out: Drug concentration in fecal samples (mg kg^−1 feces)
Experimental: Pharmacokinetics (PK) study. Mice (n=2 per time point) were given a single 100 μL solution of 5 mg/mL of compound 1 (equivalent to 20 mg/kg). Terminal blood was collected in heparinized syringes by cardiac puncture at 30 min, 1 h, 2 h, 4 h, and 8 h. The two mice at the 8-h time point were place in metabolism cages for collection of feces. Compound 1 was dissolved in 5% DMSO/95% water with 96 mg/mL of sodium bicarbonate. Blood was centrifuged at 1,000 g for 20 min at 4° C. and plasma was separated and stored at −80° C. until analysis. A 45-μL aliquot of plasma was mixed with 5 μL of H2O:ACN (1:1) and was quenched with 100 μL of acetonitrile containing 20 μM of internal standard (compound 10). The sample was centrifuged at 21,000 g for 15 min at 4° C. to precipitate the proteins, and the resulting supernatant was analyzed by UPLC-TQD detector using multiple-reaction monitoring (MRM). Calibration curves for compound 1 were prepared from 0 to 102.4 μM using a control mouse plasma (50 μL). Peak area ratios relative to internal standard and linear regression was used from which the concentrations in plasma samples from the PK study were determined.
An average of 250 mg of feces were collected at 8 h from two mice, and subsequently homogenized with 6 times the feces volume (1,500 μL of H2O:ACN 1:1) using a Bullet Blender (Next Advance, Inc., Troy, N.Y.). The homogenate was centrifuged at 21,000 g for 5 min. The fecal supernatant (72 μL) was mixed with 8 μL of a solution of H2O:ACN (1:1) and 40 μL of 50 μM of the internal standard in ACN with 0.5% formic acid. A calibration curve was prepared from 0 μM to 102.4 μM in control mouse feces. Plasma and feces were analyzed on a Waters TQD tandem quadrupole detector (Waters Corporation, Milford, Mass.) using a YMC-Triart C18 100 mm×2.0 mm column (3μ, YMC Co. Ltd, Kyoto, Japan). The chromatographic conditions consisted of elution with 30% H2O/70% ACN containing 0.10% formic acid for 5 min at a flow rate 0.5 mL/min. Mass Spectrometry acquisition was performed in the positive electrospray ionization mode with MRM. The capillary, cone, extractor and RF lens voltages were set at 2.8 kV, 40 V, 1 V and 0.1 V, respectively. The desolvation and cone gas (nitrogen) flow rates were 650 L/h and 50 L/h, respectively. The source temperature was set at 150° C. The desolvation temperature was 350° C. The MRM transitions used were 459.4→254.0 for compound 1, and 294.8→133.5 for the internal standard.
Animals. Female C57BL/6 mice weighing 18-20 g and 6-8 weeks of age were used for the efficacy study (Jackson, Bar Harbor, Me.). Female CD-1 mice (24-31 g and 7-8 weeks of age) were used for the PK study. They were housed in groups of five mice in sterile polycarbonate shoeboxes with bedding consisting of ¼-inch corncob (The Andersons Ind., Maumee, Ohio) and Alpha-Dri (Shepherd Specialty Papers, Inc., Richland, Mich.). Mice were maintained on a 12-h light/dark cycle at 72° F. and were given Teklad 2918 irradiated extruded rodent diet and water ad libitum. All procedures were performed in accordance with and approved by the University of Notre Dame Institutional Animal Care and Use Committee.
Pharmacokinetics (PK) Studies. Compounds 4, 87, 107, and 108 were dissolved in 10% DMSO, 25% propylene glycol, 15% Tween 80 and 50% water at concentrations of 5 mg/mL or 10 mg/mL. Compound 116 was dissolved in 5% DMSO, 95% water with 96 mg/mL of sodium bicarbonate. Mice (n=2 per time point) were given a single 100 μL oral gavage of the test compound (equivalent to either 10 mg/kg and/or 20 mg/kg), and terminal blood was collected in heparinized syringes by cardiac puncture at 30 min, 1 h, 2 h, 4 h, and 8 h. An average of 250 mg of feces were collected after 8 h from two mice housed in metabolism cages in each group for further analysis. Blood was centrifuged at 1000 g for 2 min at 4° C. to obtain plasma. Plasma and fecal samples were stored at −80° C. until analysis. […]

[5] = test system: HeLa cells; experiment: XTT cytotoxicity assay with HeLa cells; assay type: cell-based; settings: Homo sapiens, Table 6
Experimental: XTT assay. Cytotoxicity assays were performed in triplicate against HeLa cells (ATCC CCL-2). The IC50 values were calculated by nonlinear regression with GraphPad Prism 5 (San Diego, Calif.).
XTT assay. XTT assays were performed with HeLa cells (ATCC CCL-2) in triplicate, as previously described (Lancet 2008, 371, 1486). IC50 values were determined by nonlinear regression using GraphPad Prism 5 (San Diego, Calif.).

[6] = test system: C. difficile ATCC43255; experiment: Macromolecular synthesis assay (radioactive precursor incorporation); assay type: cell-based, Clostridioides difficile; settings: 0.5×MIC, N-acetyl-d-[6-^3H]glucosamine incorporation, 120 min
Experimental: FIG. 2. Mechanism of action of compound 1. (A) Macromolecular biosynthesis assays: Compound 1 was incubated with C. difficile ATCC43255 at 0.5×MIC. […] The incubation time was 60 min for DNA, 120 min for peptidoglycan synthesis and RNA, and 180 min for protein synthesis. (B-G) Imaging of C. difficile […] vegetative cells (logarithmic growth) by scanning electron microscopy.
The mechanism of action of 1 was investigated using macromolecular synthesis assays. These assays measure the incorporation of radioactive precursors ([2,8-^3H]-adenine, [5,6-^3H]-uridine, 1-[3,4,5-^3H(N)]-leucine, and N-acetyl-d-[6-^3H]glucosamine) respectively into DNA, RNA, protein, and peptidoglycan. […] This analysis visualizes the cell wall as the outermost layer of the cell envelope of Gram-positive bacteria such as C. difficile.
Macromolecular synthesis assay. The macromolecular synthesis assay was performed by established methods. […] The radiolabeled precursors were purchased from Perkin Elmer (Waltham, Mass., USA).

[7] = C. difficile, Table 8, read-out: MIC

O=C(Nc1ncco1)c1cc(Oc2cccc(F)c2)ccn1 [Compound 107, 4-(3-Fluorophenoxy)-N-(oxazol-2-yl)picolinamide]
MIC [1]: 64 mg/L (≈ 214 µM)
MIC [2]: 64 mg/L (≈ 214 µM)
MIC [3, 7]: 1 mg/L (≈ 3.34 µM)
Selectivity ([3]; Table 8): >256
Conc. feces/MIC [4]: 2.4
concentration at 8 h [4]: 2400 ng/g
IC50 [5]: 88 ± 2.3 mg/L (≈ 294 µM)

O=C([O-])c1ccc2oc(NC(=O)c3cc(Oc4ccc(F)c(F)c4)ccn3)nc2c1.[Na+] [Compound 116, Sodium 2-(4-(3,4-difluorophenoxy)picolinamido)benzo[d]oxazole-5-carboxylate]
MIC [1]: 128 mg/L
MIC [2]: 128 mg/L
MIC ([3]; ATCC43255, C. difficile ATCC 43255, read-out: MIC against C. difficile): 0.5 mg/L
MIC [3, 7]: 0.5 mg/L
Selectivity ([3]; Table 8): 128
Conc. feces/MIC [4]: 7.4
concentration at 8 h [4]: 3700 ng/g
IC50 [5]: > 128 mg/L

Cc1onc(-c2ccccc2)c1C(=O)N[C@@H]1C(=O)N2[C@@H]1SC(C)(C)[C@@H]2C(=O)O [oxacillin, reference compound]
inhibition of cell-wall peptidoglycan biosynthesis [6]: 51±1%
MIC ([3]; ATCC43255, C. difficile ATCC43255, FIG. 2 legend, read-out: MIC of positive controls): 8 mg/L
